Reference: patent publication US8299252B2, “Pyrazolopyridine and pyrrolopyridine multikinase inhibitors” (Chugai Seiyaku Kabushiki Kaisha, priority 2005, dated 2012)
pIC50: −log10 of the molar value. Converted amounts (≈) assume the structure as drawn.

Legend:
[1] = biological target: T1, FLT3 intracellular domain protein (Homo sapiens, UniProt P36888); test: Flt3 enzyme inhibition test (HTRF); assay type: biochemical; conditions: phosphorylation of biotinylated peptide
T1 sequence (P36888 564-993 limits assumed): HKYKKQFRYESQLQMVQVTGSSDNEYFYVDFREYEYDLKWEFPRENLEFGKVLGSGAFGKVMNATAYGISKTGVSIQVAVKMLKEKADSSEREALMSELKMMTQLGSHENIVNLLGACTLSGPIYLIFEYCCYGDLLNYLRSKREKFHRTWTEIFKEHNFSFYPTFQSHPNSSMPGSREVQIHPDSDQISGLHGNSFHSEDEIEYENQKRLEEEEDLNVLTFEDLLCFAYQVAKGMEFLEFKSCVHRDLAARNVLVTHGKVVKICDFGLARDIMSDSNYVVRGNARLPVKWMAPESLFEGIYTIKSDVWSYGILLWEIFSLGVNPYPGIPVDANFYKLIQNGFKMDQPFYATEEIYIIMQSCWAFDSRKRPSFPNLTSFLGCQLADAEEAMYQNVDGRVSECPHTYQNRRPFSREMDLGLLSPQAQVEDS
Description: The FLT3 inhibitory activity was measured by the activity of FLT3 intracellular domain protein inhibiting for phosphorylation of a biotinylated peptide ([…]).

[2] = system: human colon cancer cell line HCT116 cells; test: Cell proliferation inhibitory activity, HCT116; assay type: cell-based; conditions: for pIC50: Homo sapiens, HCT-116, read-out: 50% proliferation inhibitory concentration (IC50 value) HCT116, HCT116, 72 hours, WST-8
Description: (§1) The compounds according to the present invention were measured for cancer cell proliferation inhibitory activity and human umbilical vein endothelial cell (HUVEC) proliferation inhibitory activity.
(§2) Test compounds were serially diluted with dimethyl sulfoxide and then diluted 50 times with Ca^2+- and Mg^2+-free phosphate-buffered saline, and 20 μL of each of the resulting solution was dispensed into a 96-well plate. […] Each cell suspension contains approximately 3000 cells/180 μL. These cell suspensions were dispensed to the plate containing the test compounds at 180 μL/well and incubated in a 5% carbon dioxide gas incubator at 37° C. for 72 hours. 20 μL of WST-8 (HCT116, Dojin) or WST-1 (HUVEC, Roche Diagnostics) was added to each well, and absorbance at 450 nm (reference wavelength: 650 nm) was measured.

[3] = system: human umbilical vein endothelial cells (HUVEC), VEGF-dependent proliferation; test: VEGF-dependent HUVEC proliferation inhibition assay; assay type: cell-based; conditions: read-out: 50% proliferation inhibitory concentration (IC50 value) HUVEC (VEGF-dependent), 20 ng/mL of VEGF, 72 hours, WST-1
Description: as §1, §2

[4] = system: human umbilical vein endothelial cells (HUVEC), VEGF-independent proliferation; test: VEGF-independent HUVEC proliferation inhibition assay; assay type: cell-based; conditions: read-out: 50% proliferation inhibitory concentration (IC50 value) HUVEC (VEGF-independent), vascular endothelial cell growth-promoting agent and heparin, 72 hours, WST-1
Description: as §1, §2

[5] = biological target: Raf-1 (Homo sapiens, UniProt P04049); test: Raf-1 enzyme inhibition assay (MEK-1 phosphorylation, HTRF); assay type: biochemical; conditions: for pIC50: phosphorylation of His6-MEK-1
Description: (§3) The compounds according to the present invention were measured for Raf-1 and KDR enzyme inhibitory activities.
(§4) The Raf-1 inhibitory activity was measured by the activity of Raf-1 protein for inhibiting phosphorylation of MEK-1 protein having six histidine residues (His6) fused to the N-terminus thereof. […] The KDR inhibitory activity was measured by the activity of KDR intracellular domain protein for inhibiting phosphorylation of a biotinylated peptide ([…]).

[6] = biological target: KDR intracellular domain protein (Homo sapiens, UniProt P35968); test: KDR enzyme inhibition assay (biotinylated peptide phosphorylation, HTRF); assay type: biochemical; conditions: phosphorylation of biotinylated peptide
Description: as §3, §4

[7] = Solubility in fasted state simulated intestinal fluid; assay type: physicochemical; conditions: pH 6.5, fassif, kinetic from dmso stock, fasted state simulated intestinal fluid (pH6.5), 37° C.
Description: 2 μL of each dimethyl sulfoxide solutions containing test compounds were dispensed into wells of a 96-well plate, and 200 μL of fasted state simulated intestinal fluid (pH6.5) was added to each well. The plate was shaken at 37° C. for 20 hours. The solution was filtered through a membrane filter, and 101 μL of the filtrate was transferred to a UV plate, followed by addition of 100 μL of a solution mixture of ethanol:water=2:1 thereto. Separately, as a standard, 101 μL of a solution prepared by 2 μL of a dimethyl sulfoxide solution, 4 μL of dimethyl sulfoxide, 400 μL of ethanol, and 200 μL of water was transferred to a UV plate, and 100 μL of fasted state simulated intestinal fluid (pH6.5) was added thereto. The solubility was calculated by the following expression: Solubility=[(absorbance of test solution)−blank]/[(absorbance of standard solution)−blank]×165 μM (165 μM is the concentration of the standard solution) Composition of the fasted state simulated intestinal fluid (pH6.5)
The composition was prepared in compliance with the description in E. Galia, et al., Pharm. Res. 1998, 698.
Taurocholic acid (161 mg), L-α-phosphatidylcholine (59 mg), potassium dihydrogen phosphate (0.39 g), and potassium chloride (0.77 g) were added to about 90 mL of water. The resulting solution was adjusted to a pH of 6.5 with a sodium hydroxide aqueous solution and then diluted to a volume of 100 mL with water. The solution was filtered through a membrane filter.

Chain of Raf-1 (P04049 whole entry): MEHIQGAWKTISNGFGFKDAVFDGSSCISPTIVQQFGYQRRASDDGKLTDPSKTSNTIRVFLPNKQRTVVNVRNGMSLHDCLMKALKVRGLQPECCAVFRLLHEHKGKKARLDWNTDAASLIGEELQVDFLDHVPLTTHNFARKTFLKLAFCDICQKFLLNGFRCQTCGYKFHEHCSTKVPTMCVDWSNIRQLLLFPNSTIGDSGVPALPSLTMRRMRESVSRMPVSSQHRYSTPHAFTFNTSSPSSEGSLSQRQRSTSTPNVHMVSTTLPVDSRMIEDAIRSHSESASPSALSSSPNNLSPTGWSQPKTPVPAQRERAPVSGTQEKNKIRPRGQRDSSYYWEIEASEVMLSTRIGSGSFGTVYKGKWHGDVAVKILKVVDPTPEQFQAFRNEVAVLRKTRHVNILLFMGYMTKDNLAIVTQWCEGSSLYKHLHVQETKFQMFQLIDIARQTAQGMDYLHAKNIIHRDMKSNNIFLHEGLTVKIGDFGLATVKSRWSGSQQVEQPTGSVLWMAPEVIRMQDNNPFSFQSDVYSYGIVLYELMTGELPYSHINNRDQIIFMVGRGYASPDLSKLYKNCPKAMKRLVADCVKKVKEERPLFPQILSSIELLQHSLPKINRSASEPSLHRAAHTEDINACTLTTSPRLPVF
Chain of KDR intracellular domain protein (P35968 786-1356 limits assumed): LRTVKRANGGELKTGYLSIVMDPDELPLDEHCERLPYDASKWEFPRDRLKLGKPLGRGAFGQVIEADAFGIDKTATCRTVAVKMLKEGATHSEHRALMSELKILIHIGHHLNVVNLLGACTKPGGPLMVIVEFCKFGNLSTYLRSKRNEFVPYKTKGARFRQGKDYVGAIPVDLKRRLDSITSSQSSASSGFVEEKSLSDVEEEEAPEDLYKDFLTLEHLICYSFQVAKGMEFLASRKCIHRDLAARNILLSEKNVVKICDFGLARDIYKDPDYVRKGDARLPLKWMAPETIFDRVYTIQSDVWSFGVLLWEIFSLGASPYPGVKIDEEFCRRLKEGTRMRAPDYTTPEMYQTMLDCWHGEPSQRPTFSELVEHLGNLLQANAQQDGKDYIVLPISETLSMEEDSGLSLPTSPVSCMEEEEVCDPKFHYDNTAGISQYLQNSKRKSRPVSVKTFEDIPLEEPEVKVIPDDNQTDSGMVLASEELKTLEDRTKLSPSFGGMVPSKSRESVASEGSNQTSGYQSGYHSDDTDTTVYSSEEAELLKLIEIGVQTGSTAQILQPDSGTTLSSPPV

Structure (SMILES) | pIC50 [1] | pIC50 [2] | pIC50 [3] | pIC50 [4] | pIC50 [5] | pIC50 [6] | solubility at 20 h [7] | Raf-1 inhibitory activity (in words) [5] | proliferation inhibitory activity for HCT116 cells (in words) [2]
COCCOc1cccc2cc(NC(=O)Nc3ccc(Oc4ccnc5[nH]ccc45)cc3)ccc12 [Compound 3, 1-[5-(2-Methoxyethoxy)naphthalen-2-yl]-3-[4-(1H-pyrrolo[2,3-b]pyridin-4-yloxy)phenyl]urea] | 7.82 | 5.47 | 8.43 | 5.36 | – | – | – | – | –
O=C(Nc1ccc(Oc2ccnc3[nH]ccc23)cc1)Nc1cc(OC2CCOCC2)cc(C(F)(F)F)c1 [Compound 9, 1-[4-(1H-Pyrrolo[2,3-b]pyridin-4-yloxy)phenyl]-3-[3-(tetrahydro-pyran-4-yloxy)-5-(trifluoromethyl)phenyl]urea] | – | 5.77 | 7.52 | 5.74 | 7.19 | 8.66 | – | – | –
O=C(Nc1ccc(Oc2ccnc3[nH]ccc23)cc1)Nc1ccc(OCC(F)(F)F)c(C(F)(F)F)c1 [Compound 13, 1-[4-(1H-Pyrrolo[2,3-b]pyridin-4-yloxy)phenyl]-3-[4-(2,2,2-trifluoro-ethoxy)-3-(trifluoromethyl)phenyl]urea] | – | 5.51 | 8.13 | 5.92 | – | – | 15 µg/mL (≈ 29.4 µM) | – | –
O=C(Nc1ccc(Oc2ccnc3[nH]ccc23)cc1)Nc1ccc(OC(F)(F)F)c(C(F)(F)F)c1 [Compound 20, 1-[4-(1H-Pyrrolo[2,3-b]pyridin-4-yloxy)phenyl]-3-[4-trifluoromethoxy-3-(trifluoromethyl)phenyl]urea] | – | – | – | – | – | – | 25 µg/mL (≈ 50.4 µM) | – | –
O=C(Nc1ccc(Oc2ccnc3[nH]ncc23)cc1)Nc1ccc(CCF)c(C(F)(F)F)c1 [Compound 23, 1-[4-(2-Fluoroethyl)-3-(trifluoromethyl)phenyl]-3-[4-(1H-pyrazolo[3,4-b]pyridin-4-yloxy)phenyl]urea] | 8.16 | – | – | – | 7.72 | 8.43 | – | – | –
O=C(Nc1ccc(Oc2ccnc3[nH]ncc23)cc1)Nc1cc(CCF)cc(C(F)(F)F)c1 [Compound 24, 1-[3-(2-Fluoroethyl)-5-(trifluoromethyl)phenyl]-3-[4-(1H-pyrazolo[3,4-b]pyridin-4-yloxy)phenyl]urea] | 7.74 | – | – | – | – | – | 19 µg/mL (≈ 41.4 µM) | – | –
O=C(Nc1ccc(Oc2ccnc3[nH]ccc23)cc1)Nc1cc(CCCF)cc(C(F)(F)F)c1 [Compound 29, 1-[3-(3-Fluoropropyl)-5-(trifluoromethyl)phenyl]-3-[4-(1H-pyrrolo[2,3-b]pyridin-4-yloxy)phenyl]urea] | – | 5.80 | 8.10 | 5.96 | 7.09 | 8.04 | – | – | –
O=C(Nc1ccc(Oc2ccnc3[nH]ccc23)cc1)Nc1cc(CCC(F)F)cc(C(F)(F)F)c1 [Compound 32, 1-[3-(3,3-Difluoropropyl)-5-(trifluoromethyl)phenyl]-3-[4-(1H-pyrrolo[2,3-b]pyridin-4-yloxy)phenyl]urea] | – | 5.82 | 7.82 | 5.92 | 7.21 | 9.02 | – | – | –
O=C(Nc1ccc(Oc2ccnc3[nH]ccc23)cc1)Nc1ccc(CCCCF)c(C(F)(F)F)c1 [Compound 34, 1-[4-(4-Fluorobutyl)-3-(trifluoromethyl)phenyl]-3-[4-(1H-pyrrolo[2,3-b]pyridin-4-yloxy)phenyl]urea] | – | – | – | – | – | – | 21 µg/mL (≈ 43.2 µM) | – | –
O=C(Nc1ccc(Oc2ccnc3[nH]ncc23)cc1)Nc1ccc(CCCCF)c(C(F)(F)F)c1 [Compound 35, 1-[4-(4-Fluorobutyl)-3-(trifluoromethyl)phenyl]-3-[4-(1H-pyrazolo[3,4-b]pyridin-4-yloxy)phenyl]urea] | – | – | – | – | – | – | 18 µg/mL (≈ 36.9 µM) | – | –
O=C(Nc1ccc(Oc2ccnc3[nH]ccc23)cc1)Nc1cc(CCCCF)cc(C(F)(F)F)c1 [Compound 38, 1-[3-(4-Fluorobutyl)-5-(trifluoromethyl)phenyl]-3-[4-(1H-pyrrolo[2,3-b]pyridin-4-yloxy)phenyl]urea] | – | – | – | – | 7.19 | 8.89 | – | – | –
O=C(Nc1ccc(Oc2ccnc3[nH]ccc23)cc1)Nc1cc(CCCC(F)F)cc(C(F)(F)F)c1 [Compound 41, 1-[3-(4,4-Difluorobutyl)-5-(trifluoromethyl)phenyl]-3-[4-(1H-pyrrolo[2,3-b]pyridin-4-yloxy)phenyl]urea] | – | – | – | – | 7.09 | 8.46 | – | – | –
O=C(Nc1ccc(Oc2ccnc3[nH]ccc23)cc1)Nc1ccc2c(CCF)cccc2c1 [Compound 42, 1-[5-(2-Fluoroethyl)naphthalen-2-yl]-3-[4-(1H-pyrrolo[2,3-b]pyridin-4-yloxy)phenyl]urea] | 8.22 | 5.36 | 7.30 | 5.23 | – | – | – | – | –
O=C(Nc1ccc(Oc2ccnc3[nH]ccc23)cc1)Nc1ccc2c(CCCF)cccc2c1 [Compound 46, 1-[5-(3-Fluoropropyl)naphthalen-2-yl]-3-[4-(1H-pyrrolo[2,3-b]pyridin-4-yloxy)phenyl]urea] | – | 5.48 | 7.82 | 5.39 | – | – | – | – | –
O=C(Nc1ccc(Oc2ccnc3[nH]ccc23)cc1)Nc1cc(C(F)(F)F)cc(C(F)(F)F)c1 [Compound 50, 1-[3,5-Bis(trifluoromethyl)phenyl]-3-[4-(1H-pyrrolo[2,3-b]pyridin-4-yloxy)phenyl]urea] | – | – | – | – | – | – | 35 µg/mL (≈ 72.9 µM) | – | –
O=C(Nc1ccc(Oc2ccnc3[nH]ccc23)cc1)Nc1ccc(CF)c(C(F)(F)F)c1 [Compound 51, 1-(4-fluoromethyl-3-trifluoromethyl-phenyl)-3-[4-(1H-pyrrolo[2,3-b]pyridin-4-yloxy)phenyl]urea] | 7.80 | 6.00 | 8.40 | 6.10 | 7.46 | 9.46 | 15 µg/mL (≈ 33.8 µM) | – | –
CCc1ccc(NC(=O)Nc2ccc(Oc3ccnc4[nH]ccc34)cc2)cc1C(F)(F)F [Compound 55, 1-(4-Ethyl-3-trifluoromethyl-phenyl)-3-[4-(1H-pyrrolo[2,3-b]pyridin-4-yloxy)phenyl]urea] | – | 5.82 | 8.14 | 5.85 | 7.33 | 8.07 | – | – | –
C=Cc1ccc(NC(=O)Nc2ccc(Oc3ccnc4[nH]ccc34)cc2)cc1C(F)(F)F [Compound 56, 1-[4-(1H-Pyrrolo[2,3-b]pyridin-4-yloxy)phenyl]-3-(3-trifluoromethyl-4-vinyl-phenyl)urea] | – | 5.66 | 7.92 | 5.51 | 7.15 | 7.80 | – | – | –
O=C(Nc1ccc(F)cc1)Nc1ccc(Oc2ccnc3[nH]ccc23)cc1 [Compound B, reference compound] | – | – | – | – | – | – | – | does not have Raf-1 inhibitory activity | does not have proliferation inhibitory activity
